The numbers were not newly measured in patent US11166956B2, “Combinations of PDE1 inhibitors and NEP inhibitors” (INTRA-CELLULAR THERAPIES, INC., priority 2014, dated 2021), which cites them from elsewhere.

One data set concerns NEP and ACE. The following applies: clinical studies.
Another data set has as its target NEP (Homo sapiens, UniProt P08473).

Sequence of NEP (P08473 whole entry): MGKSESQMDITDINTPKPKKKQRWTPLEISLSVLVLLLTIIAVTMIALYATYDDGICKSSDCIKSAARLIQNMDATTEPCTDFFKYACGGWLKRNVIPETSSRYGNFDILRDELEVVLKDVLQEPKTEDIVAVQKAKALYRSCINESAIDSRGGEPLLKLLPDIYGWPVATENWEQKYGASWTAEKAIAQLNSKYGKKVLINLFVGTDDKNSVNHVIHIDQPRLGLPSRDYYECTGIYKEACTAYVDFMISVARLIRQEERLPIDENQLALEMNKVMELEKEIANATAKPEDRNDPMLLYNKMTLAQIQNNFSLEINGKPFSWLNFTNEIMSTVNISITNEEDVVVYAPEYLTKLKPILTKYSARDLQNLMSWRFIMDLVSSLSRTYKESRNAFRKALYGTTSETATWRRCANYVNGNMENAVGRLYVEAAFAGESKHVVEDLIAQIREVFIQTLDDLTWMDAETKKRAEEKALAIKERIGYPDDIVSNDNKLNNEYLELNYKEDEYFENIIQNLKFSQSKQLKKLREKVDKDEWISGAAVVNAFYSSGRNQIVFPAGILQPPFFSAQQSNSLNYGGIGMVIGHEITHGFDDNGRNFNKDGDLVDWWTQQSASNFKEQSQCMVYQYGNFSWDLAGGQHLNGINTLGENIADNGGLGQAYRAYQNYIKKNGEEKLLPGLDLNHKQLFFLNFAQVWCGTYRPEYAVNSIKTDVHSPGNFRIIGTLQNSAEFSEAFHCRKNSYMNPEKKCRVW

Regarding `COc1cc2c(c(O)c1OC)C(=O)C[C@@H](c1cc(O)ccc1O)O2` [dioclein], the vasodilation entry in the data set on PDE1 is listed as “induce PKG-dependent vasodilation”.

`O=C(N[C@H]1CCS[C@H]2CCC[C@@H](C(=O)O)N2C1=O)[C@@H](S)Cc1ccccc1` [omapatrilat]: the incidence of angioedema result in the data set on NEP and ACE was “severe incidence of angioedema”.

With `COCCOC[C@H](CC1(C(=O)N[C@H]2CC[C@@H](C(=O)O)CC2)CCCC1)C(=O)Oc1ccc2c(c1)CCC2` [Candoxatril], at NEP (in vivo), the blood-pressure lowering effect result was “does not produce a stable blood-pressure lowering effect”; the “plasma ANP and cGMP levels” value is “dose-dependent increase”. For the same molecule, the levels of endothelin result at NEP (patients with heart failure) is given as “increase levels of endothelin significantly”.
